Read-outs that look alike come from different tables or passages of the source.

As a reminder, the Kd is the equilibrium constant for the complex coming apart. As a reminder, the IC50 is the concentration that gives 50% inhibition. Low values mean greater potency, high ones weaker potency.

For one series, the target named is T1, Rat Serum Albumin (Rattus norvegicus, UniProt P02770).
T1 construct: The above albumins were prepared using method IV of Cohn et al. (J. Am. Chem. Soc. 69: 1753-1761, 1947) and purified with 1× crystallization; purchased Sigma A-6414
T1 sequence (P02770 25-608): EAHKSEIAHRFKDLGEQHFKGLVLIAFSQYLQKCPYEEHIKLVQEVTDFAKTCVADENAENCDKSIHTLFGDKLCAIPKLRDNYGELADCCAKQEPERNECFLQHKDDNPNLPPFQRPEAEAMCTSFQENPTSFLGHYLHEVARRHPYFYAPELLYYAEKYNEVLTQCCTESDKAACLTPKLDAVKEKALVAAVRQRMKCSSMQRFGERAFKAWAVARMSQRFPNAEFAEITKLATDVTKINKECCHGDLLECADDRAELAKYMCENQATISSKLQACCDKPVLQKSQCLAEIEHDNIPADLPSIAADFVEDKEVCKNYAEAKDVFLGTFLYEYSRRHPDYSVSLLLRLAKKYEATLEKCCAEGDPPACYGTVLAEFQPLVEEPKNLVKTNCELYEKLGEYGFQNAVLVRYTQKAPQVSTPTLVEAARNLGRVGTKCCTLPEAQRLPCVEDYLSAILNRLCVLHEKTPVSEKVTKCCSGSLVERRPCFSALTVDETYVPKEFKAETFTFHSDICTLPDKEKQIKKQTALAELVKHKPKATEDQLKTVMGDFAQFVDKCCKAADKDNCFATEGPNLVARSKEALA
Put plainly: ThermoFluor thermal shift assay with rat serum albumin. To be noted: Example 4, Table 3. Format: binding. The text has this: (§1) To evaluate the bioavailability of a compound in various species, the compound's affinity and specificity to albumins from human, bovine, rat, and mouse were examined. […] The resulting 1× reaction mixture comprising human serum albumin, bovine serum albumin, rat serum albumin, or mouse serum albumin was used with a panel of compounds in the binding assay.
(DSF heats the sample and reads unfolding from a dye or from intrinsic fluorescence.)

Series [1] concerns the target Human Serum Albumin (HSA) (Homo sapiens, UniProt P02768). Description: ThermoFluor thermal shift assay with human serum albumin. The settings on record: for Type of HSA Binding Interaction: classified from KD versus IC50 and % displacement of 1,8-ANS. How it is done:
(§2) 1× reaction mixture of about 50 μg/mL human serum albumin, about 4 μM 1,8-ANS, about 150 mM NaCl, about 25 mM PIPES, pH 7.2, and about 0.002% Tween®-20 was prepared.
(§3) To prevent evaporation, about 1 μL of silicone oil was added to the plate using multichannel pipettors.
The plates were loaded onto a ThermoFluor® device and heated from about 25° C. to about 95° C. at a ramp-rate of about 1° C. per minute. Fluorescence was measured by continuous illumination with UV light (Hamamatsu LC6) via fiber optic and filtered through a band-pass filter of about 390±10 nm; >6 OD cutoff. Fluorescence emissions were detected by measuring light intensity using a CCD camera (Sensys, Roper Scientific) filtered to detect about 500±25 nm; >6 OD cutoff. This allows for the entire plate to be simultaneously monitored and each sample to be independently monitored. One or more images were collected at an interval of every about 0.5° C. to about 1° C. The sum of the pixel intensity at a given area of the plate was recorded vs. temperature.
(§4) The values of Tm, ΔH, yF,Tm, mF, yU,Tm and mU were calculated for each sample according to Equation 9. Further, the value of Tm over the compound concentration was used to calculate the binding constant (KD) using Equation 10b. A shift in the denaturation curve of albumin indicates whether the compound binds to albumin, and the value of KD indicates the binding strength of compounds to albumin. A shift of the fluorescence signal indicates the specificity of compounds to albumin, and the value of IC50 indicates the binding strength to the site I (Equation 11).
(§5) The compounds and 1× reaction mixture were dispensed and measured for the fluorescence value using the plate-based reader Tecan® Safire II. Then the plate was heated in a ThermoFluor® system and measured for fluorescence value and the thermal shift value. The fluorescence values were measured twice by both plate reader and ThermoFluor®. The fluorescence value obtained from ThermoFluor® was used for qualitative assessment whereas those from the plate reader was used for quantitative assessment. The value of IC50 was determined by the fluorescence obtained from the plate reader and was fit using Equation 11 described above. The value of KD was determined by the readings from ThermoFluor® and was fit using Equation 10b described above.

In a further series the target is HSA (Homo sapiens, UniProt P02768). The settings on record: binding site on HSA from previous reports; cited from earlier work.
Chain of HSA (P02768 25-609): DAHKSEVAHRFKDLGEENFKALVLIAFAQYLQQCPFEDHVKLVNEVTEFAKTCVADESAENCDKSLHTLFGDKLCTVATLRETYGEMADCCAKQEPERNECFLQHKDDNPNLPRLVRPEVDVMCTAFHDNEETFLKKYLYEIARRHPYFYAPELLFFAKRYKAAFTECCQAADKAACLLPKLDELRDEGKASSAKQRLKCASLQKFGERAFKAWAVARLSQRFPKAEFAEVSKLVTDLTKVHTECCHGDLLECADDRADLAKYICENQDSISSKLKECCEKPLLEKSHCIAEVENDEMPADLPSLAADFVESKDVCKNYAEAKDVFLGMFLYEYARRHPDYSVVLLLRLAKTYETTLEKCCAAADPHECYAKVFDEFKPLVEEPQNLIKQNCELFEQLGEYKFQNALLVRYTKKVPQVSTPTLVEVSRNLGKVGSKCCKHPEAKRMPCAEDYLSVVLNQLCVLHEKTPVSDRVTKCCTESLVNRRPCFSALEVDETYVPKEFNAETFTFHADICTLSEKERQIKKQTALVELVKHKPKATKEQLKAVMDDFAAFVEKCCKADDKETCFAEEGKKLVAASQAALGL
Series [2] addresses Human Serum Albumin (HSA) site I (Homo sapiens, UniProt P02768). Description: 1,8-ANS site-specific probe displacement (fluorescence) from HSA site I. To be noted: for % Displacement: percent displacement of the site-specific probe 1,8-ANS at the second highest concentration of test ligand.
Source text: In addition to the thermal shift assay, the assay test plate may be utilized in a separate fluorescence measurement using a plate-based reader that is compatible with any relevant wavelengths. The preferred plate-based reader is Tecan Satire II. The displacement of site-specific probe such as 1,8-ANS from albumin site 1 by test ligand may cause a decrease in observed fluorescence that may be fit to Equation 11 to determine the value of IC50.
Additionally, the percent displacement may be determined by (y−yhigh), divided by the difference of low (y0) and high endpoints (yhigh), wherein y is determined at the second highest concentration.
as §2, §3, §4, §5

Series [3] concerns the target T2, Bovine Serum Albumin (BSA) (Bos taurus, UniProt P02769).
T2 construct: The above albumins were prepared using method IV of Cohn et al. (J. Am. Chem. Soc. 69: 1753-1761, 1947) and purified with 1× crystallization; purchased Sigma A-7638
Put plainly: ThermoFluor thermal shift assay with bovine serum albumin. The settings on record: Example 4, Table 3. Format: binding.
Source text: as §1

Another series deals with T3, Mouse Serum Albumin (Mus musculus, UniProt P07724).
T3 construct: The above albumins were prepared using method IV of Cohn et al. (J. Am. Chem. Soc. 69: 1753-1761, 1947) and purified with 1× crystallization; purchased Sigma A-3559
T3 sequence (P07724 25-608): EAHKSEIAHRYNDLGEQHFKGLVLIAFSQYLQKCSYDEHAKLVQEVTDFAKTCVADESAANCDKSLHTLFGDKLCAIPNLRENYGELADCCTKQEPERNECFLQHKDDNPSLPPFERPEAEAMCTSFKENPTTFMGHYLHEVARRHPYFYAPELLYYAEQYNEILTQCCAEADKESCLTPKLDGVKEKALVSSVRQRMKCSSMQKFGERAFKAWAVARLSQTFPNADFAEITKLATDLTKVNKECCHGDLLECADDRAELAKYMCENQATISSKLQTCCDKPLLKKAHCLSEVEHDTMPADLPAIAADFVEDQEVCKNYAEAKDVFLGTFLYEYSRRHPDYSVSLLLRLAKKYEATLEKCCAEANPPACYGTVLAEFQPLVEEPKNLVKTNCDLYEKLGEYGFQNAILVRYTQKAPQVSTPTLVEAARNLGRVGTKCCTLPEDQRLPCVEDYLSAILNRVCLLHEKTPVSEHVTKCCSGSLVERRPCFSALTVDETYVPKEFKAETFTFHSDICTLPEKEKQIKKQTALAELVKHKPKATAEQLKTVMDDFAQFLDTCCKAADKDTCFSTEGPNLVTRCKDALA
Description: ThermoFluor thermal shift assay with mouse serum albumin. Format: binding. The settings on record: Example 4, Table 3.
Source text: as §1

The mark [4] stands for this setting: Human Albumin (KD), Example 4, Table 3.

T2 sequence (P02769 25-607): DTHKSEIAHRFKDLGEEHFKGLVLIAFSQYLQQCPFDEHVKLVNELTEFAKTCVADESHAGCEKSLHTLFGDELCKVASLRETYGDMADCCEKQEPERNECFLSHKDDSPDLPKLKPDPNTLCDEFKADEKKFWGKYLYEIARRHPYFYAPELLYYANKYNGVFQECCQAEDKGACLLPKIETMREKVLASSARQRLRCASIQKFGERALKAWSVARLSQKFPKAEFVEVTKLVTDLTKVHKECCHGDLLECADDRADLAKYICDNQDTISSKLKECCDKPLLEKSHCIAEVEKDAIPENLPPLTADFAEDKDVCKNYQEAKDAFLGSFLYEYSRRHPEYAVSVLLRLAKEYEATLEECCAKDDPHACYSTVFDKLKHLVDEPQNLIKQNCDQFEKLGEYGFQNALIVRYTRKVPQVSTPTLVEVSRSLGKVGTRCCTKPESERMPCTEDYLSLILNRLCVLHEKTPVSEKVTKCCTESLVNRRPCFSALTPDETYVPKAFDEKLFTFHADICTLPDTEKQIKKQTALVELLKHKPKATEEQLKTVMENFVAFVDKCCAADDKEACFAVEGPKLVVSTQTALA
Chain of Human Serum Albumin (HSA) site I (P02768 25-609): as the sequence (P02768 25-609) above
Chain of Human Serum Albumin (HSA) (P02768 25-609): as above

On to `CCC(Cc1c(I)cc(I)c(O)c1I)C(=O)O` (centres unmarked) [Iophenoxate, iophenoxate], for which the Kd is 0.048 µM on Rat Serum Albumin, 0.044 µM in series [1], 0.066 µM in series [3] and 0.05 µM at Mouse Serum Albumin. Also, the “Type of HSA Binding Interaction” value in series [1] is on record as “Type 1”. Moreover, the “Reported Binding Site” value on HSA was “Site 1”. This compound also registered a 50% inhibitory concentration (IC50) in series [2] of 0.711 µM. Moreover, the “% Displacement” value in series [2] is “(129) %”.

For `COc1cc(NS(=O)(=O)c2ccc(N)cc2)nc(OC)n1` [Sulfadimethoxine, sulfadimethoxine], the Kd at Rat Serum Albumin is 9.4 µM; in series [1] (setting [4]), greater than 62.5 µM; in series [3] it was greater than 62.5 µM; on Mouse Serum Albumin it was 69.5 µM. For the same compound, the “Type of HSA Binding Interaction” value in series [1] is on record as “Type 1”. On HSA, the “Reported Binding Site” value is “Site 1”. Besides, the IC50 in series [2] is 96 µM. In addition, in series [2], the “% Displacement” value is given as “(71) %”.

Take `Nc1ccc(S(=O)(=O)Nc2nccs2)cc1` [Sulfathiazole, sulfathiazole]: the Kd (on Rat Serum Albumin; in series [1] (setting [4]); in series [3]; at Mouse Serum Albumin) was greater than 62.5 µM each time. In addition, in series [1], the “Type of HSA Binding Interaction” value was “Type 4”. Further, the “Reported Binding Site” value at HSA is listed as “Site 1”. Besides, in series [2], the “% Displacement” value was “(40) %”.

The record behind these values is patent US8476081B2, “Assay for evaluating affinity and specificity of ligand-albumin binding” (Janssen Pharmaceutica NV, priority 2009, dated 2013).
